Assay results taken from patent US4757012A, “Ascorbic acid intermediates and process enzymes” (Genentech, Inc., priority 1984, dated 1988).

molecular target: T1, 2,5-DKG reductase (Corynebacterium sp., UniProt P06632); test: 2,5-DKG reductase kinetic / substrate specificity assay with purified enzyme; assay type: biochemical, Corynebacterium sp. ATCC 31090; settings: not given
T1 construct: made in house; host or cells: Corynebacterium sp; ATCC 31090 (natural producer, native enzyme purified from cell paste, not recombinant)
T1 sequence (P06632 whole entry): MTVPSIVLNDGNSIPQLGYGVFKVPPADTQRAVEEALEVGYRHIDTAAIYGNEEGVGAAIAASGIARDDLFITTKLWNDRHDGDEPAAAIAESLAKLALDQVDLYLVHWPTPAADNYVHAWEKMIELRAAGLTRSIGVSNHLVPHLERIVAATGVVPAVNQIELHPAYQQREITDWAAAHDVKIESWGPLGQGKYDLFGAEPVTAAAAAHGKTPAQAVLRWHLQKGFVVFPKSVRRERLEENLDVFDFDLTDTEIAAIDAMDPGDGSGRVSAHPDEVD
From the text: The following assay conditions were used to determine kinetic parameters: […]

Row | SMILES | Alteration of enzyme activity in the presence of the substance
1 | Nc1ncnc2c1ncn2[C@@H]1O[C@H](COP(=O)(O)OP(=O)(O)O)[C@@H](O)[C@H]1O [ADP] | No alteration of activity
2 | Nc1ncnc2c1ncn2[C@@H]1O[C@H](COP(=O)(O)OP(=O)(O)OP(=O)(O)O)[C@@H](O)[C@H]1O [ATP] | No alteration of activity
3 | [Ca+2] [Ca^++] | No alteration of activity
4 | O=C(O)CN(CCN(CC(=O)O)CC(=O)O)CC(=O)O [EDTA] | No alteration of activity
5 | [Mn+2] [MN^++] | No alteration of activity
6 | [Mg+2] [Mg^++] | No alteration of activity
7 | [Zn+2] [Zn^++] | No alteration of activity
8 | N[C@@H](CS)C(=O)O [cysteine] | No alteration of activity

same assay, conditions: substrate specificity and cofactor requirements

Row | SMILES | Activity of the enzyme with the substance as substrate or cofactor
9 | O=C(O)C(=O)[C@@H](O)[C@H](O)[C@H](O)CO [2-KDG, 2-keto-D-gluconic acid] | No activity
10 | O=C(O)C(=O)[C@@H](O)[C@H](O)[C@@H](O)CO [2-KLG, 2-keto-L-gulonic acid] | No activity
11 | O=C(CO)[C@@H](O)[C@H](O)[C@@H](O)C(=O)O [5-KDG, 5-keto-D-gluconic acid] | No activity
12 | O=C(O)[C@H](O)[C@@H](O)[C@H](O)[C@H](O)CO [D-gluconic acid] | No activity
13 | NC(=O)C1=CN([C@@H]2O[C@H](COP(=O)(O)OP(=O)(O)OC[C@H]3O[C@@H](n4cnc5c(N)ncnc54)[C@H](O)[C@@H]3O)[C@@H](O)[C@H]2O)C=CC1 [NADH] | No activity
